Reference: US4687773A, “(+)-N-N-propylnorapomorphine and selective limbic activity” (priority 1985, dated 1987)
Where a name gives a salt, the structure may show the parent alone.

Assay: Catalepsy (latency to resume normal posture)
Type: in vivo, rat
Conditions: s.c., maximum 18.0
Procedure: Catalepsy: This measure of muscle rigidity is assessed by having animals in abnormal body positions and timing their duration of maintaining these. This is done by placing rats on a wire grid placed at a 45° angle to the benchtop, or by placing their forelimbs on a raised horizontal metal bar, and timing the latency to resume a normal posture by stopwatch.
All data presented in the Tables below are expressed as the mean results from 4-6 rats per condition, ±S.E.M. Stereotypy is expressed in rating units (maximum=3.0) and activity is expressed in arbitrary units of percent change, derived from EAM counts per unit time, relative to activity in control (saline) animals set at zero.

What does the source list for `CCCN1CCc2cccc3c2[C@@H]1Cc1ccc(O)c(O)c1-3` [(+)NPA, (S)-N-n-Propylnorapomorphine Hydrochloride]?
Catalepsy score (0.1 mg/kg): 0.6 ± 0.1; Catalepsy score (0.3 mg/kg): 0.4 ± 0.1; Catalepsy score (3.0 mg/kg): 0.6 ± 0.1; Catalepsy score (5.0 mg/kg): 0.6 ± 0.1
